Laboratory results from patent US11014955B2, “Cyclic peroxides as prodrugs for selective delivery of agents” (THE REGENTS OF THE UNIVERSITY OF CALIFORNIA, priority 2014, dated 2021).

Legend:
Type in all cases: cell-based
U87MG = assay: Biological activity EC50, U87MG; conditions: Homo sapiens, U-87 MG; Target (Cell Line): U87MG
IMR90 = assay: Biological activity EC50, IMR90; conditions: Homo sapiens, IMR-90; Target (Cell Line): IMR90
P. falc W2 = assay: Biological activity EC50, P. falc W2; conditions: Plasmodium falciparum; Target (Cell Line): P. falc W2; read-out: Activity EC50
HeLa = assay: Biological activity EC50, HeLa; conditions: Homo sapiens; Target (Cell Line): HeLa
P. falc FCB = assay: Biological activity EC50, P. falc FCB; conditions: Plasmodium falciparum; Target (Cell Line): P. falc FCB
MCF-7 = assay: Biological activity EC50, MCF-7; conditions: Homo sapiens, MCF7; Target (Cell Line): MCF-7
PC-3 = assay: Biological activity EC50, PC-3; conditions: Homo sapiens; Target (Cell Line): PC-3
MB-MDA-231 = assay: Biological activity EC50, MB-MDA-231; conditions: Target (Cell Line): MB-MDA-231; read-out: Activity EC50
P. falc HB3 = assay: Biological activity EC50, P. falc HB3; conditions: Plasmodium falciparum; Target (Cell Line): P. falc HB3
P. falc 3D7 = assay: Biological activity EC50, P. falc 3D7; conditions: Plasmodium falciparum; Target (Cell Line): P. falc 3D7
P. falc DD2 = assay: Biological activity EC50, P. falc DD2; conditions: Plasmodium falciparum; Target (Cell Line): P. falc DD2

SMILES | EC50 (U87MG) | EC50 (P. falc W2) | EC50 (HeLa) | EC50 (P. falc FCB) | EC50 (P. falc HB3) | EC50 (P. falc 3D7) | EC50 (P. falc DD2) | also measured
COc1ccc(/C=C/C(=O)N2CC(CCl)c3c2cc(NC(=O)OC2CCCC4(C2)OOC2(O4)C4CC5CC(C4)CC2C5)c2ccccc32)cc1 (stereo not drawn) [Example 14, dispiro[adamantane-2,2′-[1,3,5]trioxolane-4′,1″-cyclohexane]-3″-yl N-[1-(chloromethyl)-3-[(2E)-3-(4-methoxyphenyl)prop-2-enoyl]-1H,2H,3H-benzo[e]indol-5-yl]carbamate] | 40 nM | 2.8 nM | 105 nM |  |  |  |  | EC50 (IMR90): 100 nM
CN(C)c1cccc2c(S(=O)(=O)NCCCNC3CCC4(CC3)OOC3(O4)C4CC5CC(C4)CC3C5)cccc12 (stereo not drawn) [Example 19, 5-(dimethylamino)-N-[3-({dispiro[adamantane-2,2′-[1,3,5]trioxolane-4′,1″-cyclohexane]-4″-yl}amino)propyl]naphthalene-1-sulfonamide] |  |  |  | 14.6 nM |  |  |  | 
COc1ccc(-c2cnnn2-c2cc(OC)c(OC)c(OC)c2)cc1NC(=O)OC1CCCC2(COC3(O2)C2CC4CC(C2)CC3C4)C1 (stereo not drawn) [Example 13, dispiro[adamantane-2,2′-[1,3]dioxolane-4′,1″-cyclohexane]-3″-yl N-{2-methoxy-5-[1-(3,4,5-trimethoxyphenyl)-1H-1,2,3-triazol-5-yl]phenyl}carbamate] | > 1000 nM | > 1000 nM | > 1000 nM |  |  |  |  | EC50 (MCF-7): > 1000 nM; EC50 (PC-3): > 1000 nM; EC50 (MB-MDA-231): > 1000 nM
CCCCN(CCCC)CCC(OC(=O)OC1CCCC2(C1)OOC1(O2)C2CC3CC(C2)CC1C3)c1cc2c(Cl)cc(Cl)cc2c2cc(C(F)(F)F)ccc12 (stereo not drawn) [Example 8, 3-(dibutylamino)-1-[1,3-dichloro-6-(trifluoromethyl)phenanthren-9-yl]propyl dispiro[adamantane-2,2′-[1,3,5]trioxolane-4′,1″-cyclohexane]-3″-yl carbonate] |  |  |  |  | 8 nM | 21 nM | 15 nM | 
CN(C)c1cccc2c(S(=O)(=O)OC34CC5CC(C3)C3(OOC6(CCCCC6)O3)C(C5)C4)cccc12 (stereo not drawn) [Example 18, dispiro[adamantane-2,2′-[1,3,5]trioxolane-4′,1″-cyclohexane]-7-yl 5-(dimethylamino)naphthalene-1-sulfonate] |  |  |  | 17.9 nM |  |  |  | 
O=C1C(O)=C(C2CCC3(CC2)OOC2(O3)C3CC4CC(C3)CC2C4)C(=O)c2ccccc21 (stereo not drawn) [Example 10, 2-{dispiro[adamantane-2,2′-[1,3,5]trioxolane-4′,1″-cyclohexane]-4″-yl}-3-hydroxy-1,4-dihydronaphthalene-1,4-dione] |  |  |  |  | 94 nM | 188 nM | 188 nM | 
